Results as given in patent US11786597B2, “Ionic liquids for transdermal drug delivery” (priority 2013, dated 2023).
Values joined by “and” are separate entries in the source; they are usually repeats but may differ in a detail not shown here. Identical values can stand only once. Like-named read-outs stand apart in the source and are kept apart here. Marks after values point to notes of the source that are not given here.

What was measured:
[1] = Determination of lipophilicity (octanol/water distribution by UV absorbance); type: physicochemical; conditions: for percent in octanol: after extraction with water
Description: A 250 mL volume of n-octanol was shaken with 100 mL of ddH2O and left overnight. […]
The absorption of the octanol layer and water layers were measured and compared with the absorbance of the stock solutions. Measurements were repeated three times and the distribution coefficients were reported as the average. The percent of IL in octanol was calculated as the absorbance of the octanol layer after extraction divided by the absorbance of IL in octanol before extraction. The water/octanol distribution coefficient was calculated as the logarithm of the percent of IL in octanol divided by the percent of IL in water.

[2] = test system: Normal human bronchial epithelial (NHBE) cells; assay: WST-1 proliferation assay, 24 h exposure to diluted ILs
Description: Normal human bronchial epithelial (NHBE) cells were purchased (Lonza, Walkersville, MD) and cultured using bronchial epithelial cell growth media (BEGM, Clonetics Bullet Kit, Lonza, Walkersville, MD) on 100 mm tissue culture treated Petri dishes (Santa Cruz Biotechnologies, Santa Cruz, CA) coated with 50 μg/mL type I rat tail collagen (BD Biosciences, Bedford, MA). Cells were stored in an incubator with a humidified atmosphere at 37° C. and 5% CO2. Cells were fed two times weekly and passaged via trypsinization. Experimentation was performed in triplicate on cells harvested from passages 3 to 7.
NHBE cells were plated in 96-well tissue culture plates at a concentration of 1.5×10^4 cells/well in a volume of 200 μL and allowed to acclimate overnight. On the day of experimentation, treatment plates were prepared using stock ionic liquid diluted in BEGM and then serially diluted 3-fold for a total of 7 concentrations. The 96-well plates containing cells were then aspirated and the treatments (150 μL/well) were carefully transferred from the prep plate to the cells. Cells were exposed to the ionic liquids for 24 hours. Two hours prior to the end of the exposure time, positive control cell wells were aspirated, and a solution of 1% Triton-100 (150 μL/well) was added.
To assess cellular proliferation, water-soluble tetrazolium (WST-1) reagent (Clontech, Mountain View, CA) was added directly to cells, at a 1:10 dilution of the remaining media volume (7.5 μL of WST-1 reagent was added per 75 μL remaining cell culture media). NHBE cells exposed to media only and 1% Triton in BEGM were included as controls. Ionic liquid controls at the highest concentrations tested were included in wells without cells to rule out ionic liquid/assay reagent interference.

[3] = Viscosity (Viscolab 3000 viscometer); type: physicochemical
Description: Viscosity was measured on 1 mL samples with a Viscolab 3000 viscometer (Cambridge Viscosity, Medford, MA). […] Low-temperature differential scanning calorimetry (DSC) was performed on a DSC882e instrument (Mettler-Toledo Inc., Columbus, Ohio) under N2 atmosphere over two complete scans of a temperature range of −60 to 120° C. with a ramp rate of 10° C. per minute and a sample size of 18-21 mg in an aluminum crucible.

Conductivity of neat IL = type: physicochemical
Description: (§1) Determinations of conductivity were made on an ION450 benchtop meter (Radiometer Analytical) with a 2-pole electrode designed for use in viscous liquids (Radiometer Analytical CDC241-9) and calibrated with KCl. Conductivity was measured three times per sample on stirred 3 mL volumes of neat IL at 25° C. Density was measured three times per IL using a 1 mL volumetric flask and an analytical balance.

[4] = Density (volumetric flask and balance); type: physicochemical
Description: as §1

[5] = Calculations of molarity and ionic strength; type: physicochemical; conditions: neat IL, Table 5
[6] = test system: P. aeruginosa (Pseudomonas) biofilm; conditions: neat IL
[7] = test system: S. enterica (Salmonella) biofilm; conditions: neat IL
[8] = Solubility in water (physical characterization); conditions: for solubility in water: 25° C.
porcine skin = assay: Skin transport of 3H-Mannitol in Franz diffusion cell; type: in vitro ADME
Description: FIG. 1 is a schematic of the skin transport experiment set-up and analysis. Porcine skin was loaded into the Franz diffusion cell (FDC) with the stratum corneum (SC) facing up. Skin was incubated in contact with 3H-labeled drug dissolved in donor solution for 24 hrs, at 37° C., with stirring. After 24 hrs the donor solution was removed and skin thoroughly washed. The SC was separated from the epidermis by tape stripping. Ten tape strips were applied, each tape corresponding to 1 “layer” of SC. Ten tape strips were assumed to remove the entire SC. Epidermis was separated from dermis using a razor blade. Acceptor solution was collected, and drug transport into various tissue layers was quantified by scintillation counter.
3H-labeled Mannitol and Cefadroxil were obtained from American Radiolabeled Chemicals, Inc. and Moravek, respectively. FDCs were used to assess the transport enhancement of ionic liquids using a previously established protocol. Karande, et al., “Discovery of transdermal penetration enhancers by high-throughput screening”, Nat Biotechnol, 22(2): 192-7 (2004). Briefly, the acceptor chamber was filled with degassed PBS and a small stir bar added. Thawed porcine skin was clamped in place between the acceptor and donor chambers with the SC facing up. Care was taken to ensure no air bubbles resided in the acceptor chamber. Ionic liquids or PBS (control) were spiked with 3H-labeled drug (Mannitol and Cefadroxil) to a final concentration of 10 μCi/ml. 300 μL of donor solution was added to the donor chamber and incubated in contact with the SC for 24 hr, at 37° C., with stirring.
After 24 hr, the donor solution was removed, and the skin was thoroughly washed and dried.
SC was separated from epidermis by tape stripping. Ten tape strips were performed in an identical fashion, with each tape corresponding to 1 SC “layer”. Ten strips were assumed to remove the majority of the SC. Epidermis was separated from dermis with a razor blade, and the acceptor solution was collected from the acceptor chamber. Samples from each tissue layer and acceptor solution were dissolved in Soluble (Perkin Elmer, Waltham, MA) overnight and the concentration of radiolabeled solute was measured using a scintillation counter (Packard Tri-Carb 2100 TR, Meriden, CT).

[9] = read-out: IC50 at 24 h, WST, NHBE cells, 24 h, lower limits where solubility precluded IC50

| Molecule | percent in octanol ([1]; Table 3) | viscosity ([3]; 25° C.) [cP] | viscosity ([3]; Table 5) | conductivity (Conductivity of neat IL; 25° C.) [mS/cm] | conductivity (Conductivity of neat IL; Table 5) | density ([4]; 25° C.) | density ([4]; Table 5) [g/mL] | ionic strength [5] [M] | molarity [5] [M] | further results |
| --- | --- | --- | --- | --- | --- | --- | --- | --- | --- | --- |
| CCCCCCCC/C=C\CCCCCCCC(=O)O.CCCCCCCC/C=C\CCCCCCCC(=O)[O-].C[N+](C)(C)CCO | 95 +/− 3% | 880 | 162.3^b cP | 0.087 | 0.0871^b mS/cm | 0.98 g/mL | 0.98 | 1.47 | 1.47 | partitioning into octanol [1]: partitioned well into octanol; percent moving into the octanol layer ([1]; after 1 min of agitation): 95%; toxicity to human primary cells [2]: very toxic; IC50 ([2]; NHBE cells, text b165): 0.034 mM; viscosity ([3]; text b171): 162 cP; density ([4]; text b173): 0.98 g/mL |
| CCCC[N+]1(C)CCCC1.O=S(=O)([N-]S(=O)(=O)C(F)(F)F)C(F)(F)F [LANL-1, 1-Butyl-1-methylpyrrolidinium (BMP)—bistriflimide (NTf2)] | 20% +/− 7% | 72.7 | 72.72 cP | 1.99 | 1.99 mS/cm | 1.39 g/mL | 1.39 | 3.28 | 3.28 | partitioning into octanol [1]: partitioned poorly into octanol; percentage in the water phase ([1]; starting concentration of 0.2 M in octanol): 51%; percentage not incorporated in octanol or water ([1]; starting concentration of 0.2 M in octanol, third phase): 29%; toxicity to human primary cells [2]: low toxicity; IC50 [2, 9]: > 2 mM |
| NC(N)=O [LANL-6, urea-choline] |  |  |  |  |  |  |  |  |  | IC50 ([2]; NHBE cells, text b165): > 10 mM; IC50 [2, 9]: > 10 mM |
| CCCCCCn1cc[n+](C)c1.[Cl-] [LANL-7, 1-Hexyl-3-Methylimidazolium Chloride] | 52 +/− 9% | 680 | 679.5 cP | 0.340 | 0.340 mS/cm | 1.005 g/mL | 1.01 | 4.96 | 4.96 | logP ([1]; n-octanol/water, octanol/water, Table 3): 0.04; IC50 ([2]; Homo sapiens, NHBE): 10 mM; IC50 ([2]; Homo sapiens, NHBE, 24 h, read-out: IC50 at 24 h): 10 mM; toxicity to human primary cells ([2]; solubilized in culture medium): low toxicity; anti-biofilm efficacy [6]: effective; anti-biofilm efficacy [7]: effective; solubility ([8]; water, 25 °C): 700 mM |
| C[N+](C)(C)CCO.O=S(=O)([N-]S(=O)(=O)C(F)(F)F)C(F)(F)F [LANL-12, choline-NTf2] | 67 +/− 9% | 125 | 125 cP | 1.46 | 1.460 mS/cm | 1.5 g/mL and 1.53 g/mL | 1.54 | 4.40 | 4.40 | log Po/w ([1]; octanol/water, Table 3): 0.31; solubility in water [8]: 1700 mM |
| O=S(=O)(NS(=O)(=O)C(F)(F)F)C(F)(F)F [LANL-12, choline-NTf2] |  |  |  |  |  |  |  |  |  | IC50 [2, 9]: 1.7 mM |
| CCCCCCCC/C=C\CCCCCCCC(=O)[O-].CCCCCCCCCCCCCC[P+](CCCCCC)(CCCCCC)CCCCCC [LANL-19, [PC14H29(C6H13)3][oleate]] | 93 +/− 2% | 299 | 300 cP | 0.016 | 0.0162 mS/cm | 0.882 g/mL | 0.882 | 1.24 | 1.15 | log Po/w [1]: 1.14; loss/partitioning of solute to the acceptor solution (porcine skin; 3H-Mannitol): no additional loss of solute to the acceptor solution; transport enhancement into/through all layers of the skin (porcine skin; 3H-Mannitol, relative to PBS control): 5-10 fold; skin transport properties (porcine skin; materials in lower right portion of Walden plot): best skin transport properties |
| CCCCCC(=O)[O-].CCCCCCCCCCCCCC[P+](CCCCCC)(CCCCCC)CCCCCC [LANL-20, [PC14H29(C6H13)3][hexanoate]] | 65 +/− 14% | 154 | 154 cP | 0.488 | 0.488 mS/cm | 0.912 g/mL | 0.912 | 1.63 | 1.63 | log Po/w ([1]; octanol/water, Table 3): 0.26; solubility in water [8]: trace |
| CC(C)=CCC/C(C)=C/C(=O)[O-].CCCCCCCCCCCCCC[P+](CCCCCC)(CCCCCC)CCCCCC [LANL-22, [PC14H29(C6H13)3][geranate]] | 88 +/− 6% | 122 | 122.3 cP | 0.156 | 0.156 mS/cm | 0.931 g/mL | 0.931 | 1.43 | 1.43 | log Po/w [1]: 0.86 |
| choline hexanoate [LANL-13] | 51 +/− 2% | 181 | 180.9 cP | 0.816 | 0.816 mS/cm | 1.01 g/mL | 1.01 | 3.02 | 3.02 | toxicity to human primary cells [2]: low toxicity; conductivity (Conductivity of neat IL; text b172): 0.816 mS/cm; drug permeation into the SC (porcine skin; 3H-Mannitol, 24 hr, 37° C.): inhibited drug permeation into the SC; anti-biofilm efficacy [6]: effective; anti-biofilm efficacy [7]: effective |
| choline malonate [LANL-5] |  | 920 | 920.1 cP | 0.429 | 0.429 mS/cm | 1.266 g/mL | 1.27 | 5.20 | 5.20 | density ([4]; text b173): 1.27 g/mL; anti-biofilm efficacy [6]: effective; anti-biofilm efficacy [7]: effective |
